Experiment [1] relates to HBV (genotype D, serotype ayw, Galibert's strain). In words: Quantification of virion associated secreted HBV DNA in supernatant of HBV-infected differentiated HepaRG (dHepaRG) cells by qPCR, % of replication vs DMSO. Conditions: 1 μM compound, 7 days treatment, DMSO = 100%; for activity at 1 µM: Hepatitis B virus, HepaRG, 168 h, read-out: dHepaRG HBV % of replication at 1 μM compared to DMSO. The format is cell-based, hepatitis B virus. The method, then: (§1) From Methods in Lucifora J. et al. (Direct antiviral properties of TLR ligands against HBV replication in immune-competent hepatocytes, Science Scientific Reports, 2018, 8:5390): • 1) HepaRG cells were cultured, as described previously by Gripon P. et al. (Infection of a human hepatoma cell line by hepatitis B virus. Proc Natl Acad Sci USA, 2002, 99, p 15655-15660) on pages 15655 and 15656, in Williams E medium supplemented with 10% fetal calf serum, 50 U penicillin/streptomycin (Gibco-Invitrogen) ml^−1, […] ml^−1 and 5×10^−7 M hydrocortisone hemisuccinate (Roche Diagnostics and Boehringer Mannheim, respectively). The cell cultures were maintained in a 5% CO2 atmosphere at 37° C. During the proliferation phase, culture medium was renewed every 2 days. For differentiation and infection, cells were maintained for 2 weeks in standard medium and then for at least 2 more weeks in medium supplemented with 1.8-2.0% DMSO (Sigma). • 2) Primary Human Hepatocytes (PHH) were freshly prepared from human liver resection as previously described by Lecluyse, E. L. & Alexandre, E. (Isolation and culture of primary hepatocytes from resected human liver tissue. Methods Mol Biol, 2010, 640, p 57-82, https://doi.org/10.1007/978-1-60761-688-7_3) on page 63 paragraph 3. “Methods” from section 3.1. through 3.6.2. page 77. All experimental procedures were conducted in conformity with French laws and regulations and were approved by the National Ethics Committee. • 3) Cell viability was measured by both neutral red and MTS (CellTiter 96 Aqueous One Solution cell proliferation assay; Promega) tests. • 4) HBV inoculum (genotype D, serotype ayw, Galibert's strain referred as NC_003977.2 at NCBI) was prepared from HepAD38 (see Ladner, S. K. et al., Inducible expression of human hepatitis B virus (HBV) in stably transfected hepatoblastoma cells: a novel system for screening potential inhibitors of HBV replication. Antimicrob Agents Chemother, 1997, 41, p 1715-1720) supernatants by polyethylene-glycol-MW-8000 (PEG8000, SIGMA) precipitation (8% final) as previously described by Luangsay, S. et al. (Early inhibition of hepatocyte innate responses by hepatitis B virus. J Hepatol, 2015, 63, p 1314-1322, https://doi.org/10.1016/j.jhep.2015.07.014).
(§2) Viral stocks with titer reaching at least 1×10^10 viral genome equivalent (vge)/mL were tested endotoxin free.
(§3) Differentiated HepaRG (dHepaRG) or PHH were infected by HBV at a multiplicity of infection of 100-200 vge/cell in culture medium containing 4% PEG 8000 (Sigma) for 16 h at 37° C. in 12- or six-well plates. At the end of the incubation period, cells were washed once with medium and then cultured in Williams E medium containing DMSO as indicated. In general infection was left for 7 days before any treatment was started, to allow replication reaching its maximum. • 5) Infected cell treatment with compounds of interest: • 5a: After 7 days of infection with the virus (day 0 to day 7), the dHepaRG cells were treated (3 treatments: day 7, day 10 and day 12) with a […] of the tested compound (diluted with sterile water from a 10 mM stock DMSO solution) or DMSO as reference negative control for 7 more days. • 5b: After 4 days of infection with the virus (day 0 to day 4), the PHH cells were treated (3 treatments: day 4, day 7 and day 9) with a […] of the tested compound (diluted with sterile water from a 10 mM stock DMSO solution) for 7 more days. • 6) Quantification of virion associated secreted HBV DNA in cell culture supernatant:
(§4) At the end of the experiment (7 days treatment) the supernatant of infected and treated cells (either dHepaRG or PHH or others) is collected. It is diluted 1/4 into sterile water (molecular biology quality) then treated for 30 minutes with RNAse (10 unit) and DNAse (10 unit) to remove non encapsidated material. […]
(In general: Real-time PCR tracks product formation cycle by cycle.)

For experiment [2] the test system is unchanged. In words: Quantification of virion associated secreted HBV DNA in supernatant of HBV-infected Primary Human Hepatocytes (PHH) by qPCR, % of replication vs DMSO. The experiment is classed as cell-based, hepatitis B virus. Conditions: 1 μM compound, 7 days treatment, DMSO = 100%; for activity at 1 µM: Hepatitis B virus, Hepatocyte, 168 h, (*) n = 1, read-out: PHH HBV % of replication at 1 μM compared to DMSO. As for the experimental part: as §1, §2, §3, §4

For `CC(C)OC(=O)CC1COP(=O)(CO[C@H](C)Cn2cnc3c(N)ncnc32)OC1` (single isomer, unassigned) [Example 3a], the activity at 1 µM in experiment [1] and in experiment [2] was no more than 30% in each case.
`Nc1ncnc2c1ncn2CCOCP(=O)(O)O` [ADF]: in experiment [1], the “dHepaRG HBV % of replication at 1 μM compared to DMSO” value is “++ (50% < ++ ≤ 80%)”. Besides, the “PHH HBV % of replication at 1 μM compared to DMSO” value in experiment [2] ((*) n = 1) is “++ (50% < ++ ≤ 80%)”.
On to `COC(=O)CC1COP(=O)(CO[C@H](C)Cn2cnc3c(N)ncnc32)OC1` (stereo partly drawn) [Example 1, (R)-methyl 2-(2-(((1-(6-amino-9H-purin-9-yl)propan-2-yl)oxy)methyl)-2-oxo-1,3,2-dioxaphosphinan-5-yl)acetate], for which the activity at 1 µM in experiment [1] and in experiment [2] was no more than 30% throughout.
In the case of `CCOC(=O)CC1COP(=O)(CO[C@H](C)Cn2cnc3c(N)ncnc32)OC1` (stereo partly drawn) [Example 2, (R)-ethyl 2-(2-(((1-(6-amino-9H-purin-9-yl)propan-2-yl)oxy)methyl)-2-oxo-1,3,2-dioxaphosphinan-5-yl)acetate], the activity at 1 µM in experiment [1] and in experiment [2] was no more than 30% each time.
For `C[C@H](Cn1cnc2c(N)ncnc21)OCP1(=O)OCC(CC(=O)OC2CCCC2)CO1` (stereo partly drawn) [Example 5, (R)-cyclopentyl 2-(2-(((1-(6-amino-9H-purin-9-yl)propan-2-yl)oxy)methyl)-2-oxo-1,3,2-dioxaphosphinan-5-yl)acetate], the activity at 1 µM in experiment [1] and in experiment [2] was no more than 30% in each case.
Turning to `CCCCCCOC(=O)CC1COP(=O)(CO[C@H](C)Cn2cnc3c(N)ncnc32)OC1` (stereo partly drawn) [Example 5b, (R)-hexyl 2-(2-(((1-(6-amino-9H-purin-9-yl)propan-2-yl)oxy)methyl)-2-oxo-1,3,2-dioxaphosphinan-5-yl)acetate], the activity at 1 µM in experiment [1] is 30 to 50%; in experiment [2], no more than 30%.
For `CC1COP(=O)(CO[C@H](C)Cn2cnc3c(N)ncnc32)OC1` (stereo partly drawn) [Example 5c, (R)-2-(((1-(6-amino-9H-purin-9-yl)propan-2-yl)oxy)methyl)-5-methyl-1,3,2-dioxaphosphinane 2-oxide], in that order: greater than 80% and 30 to 50%.
As for `COC(=O)CCC1COP(=O)(CO[C@H](C)Cn2cnc3c(N)ncnc32)OC1` (stereo partly drawn) [Example 6, (R)-methyl 3-(2-(((1-(6-amino-9H-purin-9-yl)propan-2-yl)oxy)methyl)-2-oxido-1,3,2-dioxaphosphinan-5-yl)propanoate], the activity at 1 µM in experiment [1] is 50 to 80%; in experiment [2] it was greater than 80%.
As for `CCOC(=O)CCC1COP(=O)(CO[C@H](C)Cn2cnc3c(N)ncnc32)OC1` (stereo partly drawn) [Example 7, (R)-ethyl 3-(2-(((1-(6-amino-9H-purin-9-yl)propan-2-yl)oxy)methyl)-2-oxo-1,3,2-dioxaphosphinan-5-yl)propanoate], the activity at 1 µM in experiment [1] and in experiment [2] was 50 to 80% throughout.
On to `CC(C)OC(=O)CCC1COP(=O)(CO[C@H](C)Cn2cnc3c(N)ncnc32)OC1` (stereo partly drawn) [Example 8, (R)-isopropyl 3-(2-(((1-(6-amino-9H-purin-9-yl)propan-2-yl)oxy)methyl)-2-oxo-1,3,2-dioxaphosphinan-5-yl)propanoate], for which the activity at 1 µM in experiment [1] and in experiment [2] was 50 to 80% in each case.
Take `C[C@H](Cn1cnc2c(N)ncnc21)OCP1(=O)OCC(CCC(=O)OC2CCCC2)CO1` (stereo partly drawn) [Example 10, (R)-cyclopentyl 3-(2-(((1-(6-amino-9H-purin-9-yl)propan-2-yl)oxy)methyl)-2-oxo-1,3,2-dioxaphosphinan-5-yl)propanoate]: the activity at 1 µM is 50 to 80% in experiment [1] and no more than 30% in experiment [2].
For `CCOC(=O)CC1COP(=O)(CO[C@H](C)Cn2cnc3c(NC(C)=O)ncnc32)OC1` (stereo partly drawn) [Example 13, (R)-ethyl 2-(2-(((1-(6-acetamido-9H-purin-9-yl)propan-2-yl)oxy)methyl)-2-oxo-1,3,2-dioxaphosphinan-5-yl)acetate] the same measures were 50 to 80% and no more than 30%.

(Values after patent publication US20260144879A1, “ANTI-VIRAL AND HEPATIC-TARGETED DRUGS” (AI-BIOPHARMA, priority 2019, published 2026).)
